According to patent publication US12280090B2, “Antimicrobial peptides” (priority 2018, dated 2025):
Values after ≈ are worked out from the molar mass of the structure shown. Like-named read-outs stand apart in the source and are kept apart here. Bridge positions count the residues as written; N and C are the ends. Ends that are not written are not given here. Peptide text beside a SMILES is read from it.

Experiments:
Type in all cases: cell-based
[1] = test system: Staphylococcus aureus: ATCC 6538P
Procedure: (§1) Microtiter broth dilution assays. HP2, HP3, and HP5 peptides are comprised of novel sequences that have not yet been described in the AMP literature. A common method for establishing antimicrobial activity of peptides is to perform microtiter broth assays. Microtiter broth dilution methods were implemented for determination of the minimum inhibitory concentration (MIC) and minimum bactericidal concentration (MBC). HP3 and HP5 were tested in addition to Ranatuerin-1/HP4 peptide as a positive control. HP2 could not be tested because multiple peptide synthesis attempts failed. The human cathelicidin, LL-37^30 was used as an additional positive control, and an unrelated similarly sized cationic peptide from the T. pallidum protein Tp0751 was used as a negative control. The potential AMPs were tested against bacteria representative of all three types of known cell envelope (Gram-positive, negative, and the complex and unique mycobacterial cell wall/envelope), given that a major mechanism used by AMPs is cell wall/membrane targeting.
(§2) Microtiter broth dilution assays. To test for antimicrobial activity, HP3, HP4/Ranatuerin-1, and HP5, peptides were synthesized by GenScript (Piscataway, New Jersey, USA). HP2 was not tested because the service provider was unable to synthesize this peptide despite multiple attempts. An unrelated, similarly-sized peptide from the Treponema pallidum protein Tp0751^55 was used as a negative control and the human cathelicidin, LL-37^30, was included as a positive control. Peptides were dissolved in filter-sterilized ultrapure water and tested for sterility by plating on non-selective agar plates followed by a 48 h incubation at 37° C. Two-fold serial dilutions of each peptide were prepared to obtain a series corresponding to ten times the required testing concentrations (2560, 1280, 640, 320, 160, 80, 40, 20, 10, and 5 μg/mL)^29.
(§3) Microtiter broth dilution methods were implemented for determination of the minimum inhibitory concentration (MIC) and minimum bactericidal concentration (MBC) of the four putative AMPs and the negative control peptide using procedures adapted from the R.E.W. Hancock Laboratory for cationic AMPs^29 and the CLSI methods for dilution antimicrobial susceptibility tests^56.
(§4) To assess antimicrobial activity across a diverse range of bacterial species, colonies were cultured overnight on Mueller Hinton agar plates (MHA; +5% sheep blood for S. pyogenes)^56 from frozen glycerol stock. Bacteria tested include Gram-negative rods (Escherichia coli: ATCC 9723H; Pseudomonas aeruginosa: ATCC 10148), Gram-positive cocci (Staphylococcus aureus: ATCC 6538P; Streptococcus pyogenes: unknown strain, hospital isolate), and Mycobacterium smegmatis (MC^2155; classified as neither Gram-positive nor Gram-negative). Bacterial suspensions were prepared by placing 3-5 morphologically similar colonies from the grown plate into sterile glass culture tubes containing 2 mL of Mueller Hinton Broth (MHB; +5% lysed horse blood for S. pyogenes) 56. Microbial inoculums from bacterial suspensions were prepared through a spectrophotometric adjustment of turbidity to 0.08-0.1 at 600 nm to achieve a turbidity equivalent to that of a 0.5 McFarland standard (1-2×10^8 CFU/mL)^29. The standardized bacterial inoculums were then diluted in MHB to obtain final cell densities of approximately […].
(§5) Ninety-six-well microtiter plates (Fisher Cat. No. CS003790; Nepean, Ontario, Canada) were prepared with 100 μL of E. coli, P. aeruginosa, S. aureus, S. pyogenes, or M. smegmatis bacterial suspension (5×10^5 CFU/mL) dispensed into each well of columns 1 through 11. Eleven microliters of the 10×AMP dilution series for all four peptides were added to each well from column 1 (2560 μg/mL) to column 10 (5 μg/mL) in all plates. Column 11 functioned as a positive control for bacterial growth in the absence of AMPs. Column 12 in each plate contained 100 μL of MHB as a sterility control (+5% lysed horse blood for S. pyogenes)^56. […]

[2] = test system: Pseudomonas aeruginosa: ATCC 10148
Procedure: as §1, §2, §3, §4, §5

[3] = test system: Mycobacterium smegmatis (MC^2155)
Procedure: as §1, §2, §3, §4, §5

[4] = test system: Escherichia coli: ATCC 9723H
Procedure: as §1, §2, §3, §4, §5

[5] = test system: Streptococcus pyogenes: unknown strain, hospital isolate
Procedure: as §1, §2, §3, §4, §5

[6] = unknown strain, hospital isolate

MIC ([1]; ATCC 6538) [mg/L] | MIC ([2]; ATCC 10148) [mg/L] | MIC ([4]; ATCC 9723) [mg/L] | MIC [5, 6] [mg/L] | MIC ([3]; Mycobacterium (MC^2155)) [mg/L] | Molecule | MBC ([1]; ATCC 6538) [mg/L] | inhibitory or bacteriostatic activity ([1]; S. aureus) | MBC ([2]; ATCC 10148) [mg/L] | inhibitory or bacteriostatic activity ([2]; P. aeruginosa) | bacteriostatic and bacteriocidal activity ([3]; M. smegmatis) | MBC ([4]; ATCC 9723) [mg/L] | inhibitory or bacteriostatic activity ([4]; E. coli) | inhibitory or bacteriostatic activity ([5]; S. pyogenes) | MBC [5, 6] [mg/L] | MBC ([3]; Mycobacterium (MC^2155)) [mg/L] | MBC ([1]; S. aureus (Table 5)) [mg/L] | MBC ([2]; P. aeruginosa (Table 5)) [mg/L] | MBC ([3]; M. smegmatis (Table 5)) [mg/L] | MBC ([4]; E. coli (Table 5)) [mg/L] | MBC ([5]; S. pyogenes (Table 5)) [mg/L]
>256 | >256 | >256 | >256 |  | CC[C@H](C)[C@H](NC(=O)[C@H](CC(C)C)NC(=O)[C@H](CCCCN)NC(=O)[C@H](CCCCN)NC(=O)[C@H](CS)NC(=O)[C@H](CCCNC(=N)N)NC(=O)[C@H](CCC(=O)O)NC(=O)[C@@H](NC(=O)[C@@H]1CCCN1C(=O)[C@@H](NC(=O)[C@H](CCC(=O)O)NC(=O)[C@H](CO)NC(=O)[C@H](CS)NC(=O)[C@H](CCC(=O)O)NC(=O)[C@H](CCC(=O)O)NC(=O)[C@H](CCCCN)NC(=O)[C@@H](NC(=O)[C@H](CC(C)C)NC(=O)[C@H](CCC(=O)O)NC(=O)[C@H](CCC(=O)O)NC(=O)[C@H](CC(C)C)NC(=O)[C@H](C)NC(=O)[C@H](CCCNC(=N)N)NC(=O)[C@H](CC(C)C)NC(=O)[C@H](CC(N)=O)NC(=O)[C@H](CO)NC(=O)[C@@H]1CCCN1C(=O)[C@@H](N)CC(N)=O)C(C)C)[C@@H](C)CC)C(C)C)C(=O)N[C@@H](Cc1ccc(O)cc1)C(=O)NCC(=O)N[C@@H](Cc1ccc(O)cc1)C(=O)N[C@@H](CCCNC(=N)N)C(=O)N[C@@H](CCCCN)C(=O)O [HP5] (H-NPSNLRALEELVKEECSEIPVERCKKLIYGYRK-OH; N-terminus and C-terminus assumed) | >256 | no effect | >256 | no effect | weak bacteriostatic and bacteriocidal activity | >256 | no effect | no effect | >256 |  |  |  |  |  | 
>256 | >256 | >256 | >256 | >256 | CC[C@H](C)[C@H](NC(=O)CNC(=O)[C@@H](NC(=O)[C@@H](NC(=O)[C@H](CCCCN)NC(=O)CNC(=O)[C@@H](NC(=O)[C@H](CC(=O)O)NC(=O)[C@H](CCCCN)NC(=O)[C@@H](NC(=O)[C@@H](NC(=O)[C@H](CC(=O)O)NC(=O)[C@H](CC(C)C)NC(=O)[C@H](CC(C)C)NC(=O)CN)[C@@H](C)CC)[C@@H](C)CC)[C@@H](C)O)[C@@H](C)O)[C@@H](C)O)C(=O)N[C@@H](CC(C)C)C(=O)N[C@@H](CCSC)C(=O)N[C@@H](CC(=O)O)C(=O)N[C@H](C(=O)N[C@@H](CC(C)C)C(=O)N[C@@H](CCCCN)C(=O)N[C@@H](CS)C(=O)N[C@@H](CCC(N)=O)C(=O)N[C@@H](CCSC)C(=O)N[C@H](C(=O)NCC(=O)N[C@@H](CCCNC(=N)N)C(=O)N[C@@H](CS)C(=O)N1CCC[C@H]1C(=O)N1CCC[C@H]1C(=O)N[C@@H](CO)C(=O)N[C@@H](CO)C(=O)O)[C@@H](C)O)[C@@H](C)O [Peptide P3_CCH] (H-GLLDIIKDTGKTTGILMDTLKCQMTGRCPPSS-OH; N-terminus and C-terminus assumed) | >256 |  | >256 |  |  | >256 |  |  | >256 | >256 |  |  |  |  | 
>256 | >256 | >256 | >256 | 128 (≈ 96.8 µM) | CC[C@H](C)[C@H](NC(=O)[C@H](C)NC(=O)[C@@H]1CCCN1C(=O)[C@@H](N)Cc1ccccc1)C(=O)N[C@H](C(=O)N[C@@H](CS)C(=O)N[C@@H](CCCCN)C(=O)N[C@H](C(=O)N[C@@H](CO)C(=O)N[C@@H](CCCCN)C(=O)N[C@@H](CC(N)=O)C(=O)N[C@@H](CS)C(=O)O)C(C)C)[C@@H](C)CC [Peptide P8_CCH, FPAIICKVSKNC] (H-FPAIICKVSKNC-OH; N-terminus and C-terminus assumed) | >256 |  | >256 |  |  | >256 |  |  | >256 |  |  |  |  |  | 
>256 | >256 | >256 | >256 | >256 | CC[C@H](C)[C@H](N)C(=O)N[C@@H](CCC(N)=O)C(=O)N[C@@H](CCCNC(=N)N)C(=O)N[C@@H](CC(C)C)C(=O)N1CCC[C@H]1C(=O)N[C@H](C(=O)N[C@H](C(=O)N[C@H](C(=O)N[C@H](C(=O)N[C@@H](CC(C)C)C(=O)N1CCC[C@H]1C(=O)N[C@@H](CO)C(=O)N[C@@H](CC(C)C)C(=O)N[C@@H](Cc1ccc(O)cc1)C(=O)N[C@@H](CS)C(=O)N[C@H](C(=O)N[C@H](C(=O)N[C@@H](CS)C(=O)N[C@@H](CCCNC(=N)N)C(=O)N[C@H](C(=O)N[C@@H](CS)C(=O)O)[C@@H](C)O)[C@@H](C)CC)C(C)C)[C@@H](C)CC)C(C)C)[C@@H](C)CC)C(C)C [Peptide P14_CCH] (H-IQRLPVIVILPSLYCVICRTC-OH; N-terminus and C-terminus assumed) | >256 |  | >256 |  |  | >256 |  |  | >256 | >256 |  |  |  |  | 
4 (≈ 1.51 µM) | >256 | 16 (≈ 6.03 µM) |  | 4 (≈ 1.51 µM) | CC[C@H](C)[C@H](NC(=O)[C@H](Cc1ccccc1)NC(=O)[C@@H]1CCCN1C(=O)[C@H](CC(C)C)NC(=O)[C@@H](N)Cc1ccccc1)C(=O)N[C@@H](C)C(=O)N[C@@H](CCCNC(=N)N)C(=O)N[C@@H](CC(C)C)C(=O)N[C@@H](C)C(=O)N[C@@H](C)C(=O)N[C@@H](CCCCN)C(=O)N[C@H](C(=O)N[C@@H](Cc1ccccc1)C(=O)N1CCC[C@H]1C(=O)N[C@@H](CO)C(=O)N[C@H](C(=O)N[C@H](C(=O)N[C@H]1CSSC[C@@H](C(=O)O)NC(=O)[C@H](CCCCN)NC(=O)[C@H](CCCCN)NC(=O)[C@H]([C@@H](C)O)NC(=O)[C@H](C(C)C)NC(=O)[C@H](CO)NC1=O)[C@@H](C)CC)[C@@H](C)CC)C(C)C [Peptide R4] (H-FLPFIARLAAKVFPSIICSVTKKC-OH; disulfide 18-24; N-terminus and C-terminus assumed) | 4 (≈ 1.51 µM) |  | >256 |  |  | 16 (≈ 6.03 µM) |  |  |  | 4 (≈ 1.51 µM) |  |  |  |  | 
>256 | >256 | >256 | >256 | >256 | FLTKPGMTFGKLLGK [Peptide P9_CCH] | >256 |  | >256 |  |  | >256 |  |  | >256 | >256 |  |  |  |  | 
>256 | >256 | >256 | >256 |  | FYFPVSRKFGGK [Peptide P1_CCH, FYFPVSRKFGGK] |  |  |  |  |  |  |  |  |  |  | > 256 | > 256 | > 256 | > 256 | > 256
>256 | >256 | >256 | >256 | >256 | IAGQVAAAKQKHI [Peptide P12_CCH, IAGQVAAAKQKHI] | >256 |  | >256 |  |  | >256 |  |  | >256 | >256 |  |  |  |  | 
